Earlier results as cited in patent US20040229855A1, “Antiglucocorticoids for the treatment of postpartum psychosis” (Corcept Therapeutics, Inc., priority 2003, published 2004).

Columns and labels:
glucocorticoid receptor = molecular target: T1, glucocorticoid receptor (Homo sapiens, UniProt P04150); conditions: cited from earlier work
T1 sequence (P04150 1-777): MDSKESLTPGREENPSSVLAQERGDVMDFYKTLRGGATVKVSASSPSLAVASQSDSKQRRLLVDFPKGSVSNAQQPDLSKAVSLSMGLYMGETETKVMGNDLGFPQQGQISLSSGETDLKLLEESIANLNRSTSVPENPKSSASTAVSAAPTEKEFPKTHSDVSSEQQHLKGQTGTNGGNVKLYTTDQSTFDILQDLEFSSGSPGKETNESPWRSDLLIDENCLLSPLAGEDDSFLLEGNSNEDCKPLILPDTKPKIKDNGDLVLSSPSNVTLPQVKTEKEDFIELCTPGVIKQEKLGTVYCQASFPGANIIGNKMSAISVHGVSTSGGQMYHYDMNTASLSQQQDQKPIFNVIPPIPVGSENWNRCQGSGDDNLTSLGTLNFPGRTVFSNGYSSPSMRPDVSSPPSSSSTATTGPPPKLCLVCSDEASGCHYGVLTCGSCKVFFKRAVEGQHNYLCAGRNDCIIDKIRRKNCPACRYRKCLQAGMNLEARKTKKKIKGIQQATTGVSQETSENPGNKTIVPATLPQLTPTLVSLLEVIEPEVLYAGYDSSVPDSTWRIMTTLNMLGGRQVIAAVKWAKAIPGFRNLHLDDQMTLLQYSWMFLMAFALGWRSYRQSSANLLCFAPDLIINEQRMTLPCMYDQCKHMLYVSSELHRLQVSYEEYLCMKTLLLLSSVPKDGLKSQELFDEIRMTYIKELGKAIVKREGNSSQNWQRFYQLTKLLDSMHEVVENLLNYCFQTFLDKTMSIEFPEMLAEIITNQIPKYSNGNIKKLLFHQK

[1] = in one study (Kawai 1989); cited from earlier work
progesterone receptor = molecular target: T2, progesterone receptor (Homo sapiens, UniProt P06401); conditions: cited from earlier work
T2 sequence (P06401 1-933): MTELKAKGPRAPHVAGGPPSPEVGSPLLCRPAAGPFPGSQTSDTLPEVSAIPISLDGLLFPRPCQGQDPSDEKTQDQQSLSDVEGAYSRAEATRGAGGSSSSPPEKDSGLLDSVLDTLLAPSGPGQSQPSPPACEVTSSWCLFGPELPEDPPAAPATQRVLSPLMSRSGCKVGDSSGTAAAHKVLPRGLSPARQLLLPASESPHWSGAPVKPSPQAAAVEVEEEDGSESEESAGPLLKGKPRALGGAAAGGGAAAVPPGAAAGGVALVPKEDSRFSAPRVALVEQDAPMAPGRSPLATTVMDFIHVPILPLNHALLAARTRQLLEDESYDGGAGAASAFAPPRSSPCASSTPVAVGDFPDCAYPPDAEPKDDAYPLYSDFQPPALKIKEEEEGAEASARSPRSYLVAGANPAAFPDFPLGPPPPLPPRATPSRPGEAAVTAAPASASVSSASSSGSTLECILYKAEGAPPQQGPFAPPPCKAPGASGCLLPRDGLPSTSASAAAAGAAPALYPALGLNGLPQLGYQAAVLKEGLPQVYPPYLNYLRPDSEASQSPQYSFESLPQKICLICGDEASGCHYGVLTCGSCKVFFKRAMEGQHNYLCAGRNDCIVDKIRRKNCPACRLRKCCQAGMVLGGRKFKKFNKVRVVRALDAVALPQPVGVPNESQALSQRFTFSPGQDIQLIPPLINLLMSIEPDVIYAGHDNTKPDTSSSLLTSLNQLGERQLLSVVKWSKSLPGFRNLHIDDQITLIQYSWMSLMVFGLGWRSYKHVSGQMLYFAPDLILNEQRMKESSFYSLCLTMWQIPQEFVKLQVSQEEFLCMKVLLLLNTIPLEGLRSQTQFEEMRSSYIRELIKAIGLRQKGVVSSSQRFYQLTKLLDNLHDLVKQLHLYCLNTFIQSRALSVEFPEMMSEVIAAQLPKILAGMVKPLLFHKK

Compound	glucocorticoid receptor antagonist activity (glucocorticoid receptor)	daily dose excreted in the urine [1]	progesterone receptor antagonist activity (progesterone receptor)
CC#C[C@]1(O)CC[C@H]2[C@@H]3CCC4=CC(=O)CCC4=C3[C@@H](c3ccc(OCCN(C)C)cc3)C[C@@]21C [RU009, 11β-(4-dimethylaminoethoxyphenyl)-17α-propynyl-17β-hydroxy-4,9 estradien-3-one]	glucocorticoid receptor antagonist effects		
CC#C[C@]1(O)CC[C@H]2[C@@H]3CCC4=CC(=O)CCC4=C3[C@@H](c3ccc(N(C)C)cc3)C[C@@]21C [mifepristone, 17-β-hydroxy-11-β-(4-dimethyl-aminophenyl)-17-α-(1-propynyl)-estra-4,9-dien-3-one]	powerful antagonist	less than 0.5%	powerful antagonist
